# Results from patent US10064858B2, “Methods and compositions for treating bacterial infections with iron chelators” (THE UNITED STATES OF AMERICA, AS REPRESENTED BY THE …, priority 2011, dated 2018).
# Key:
# [1] = system: clinical isolates of A. baumannii; experiment: MIC for clinical isolates in CAMHB media (Table 3); type: cell-based; conditions: Acinetobacter baumannii
# Procedure: Individual MICs were determined following the microdilution method recommended by CLSI in cationic-adjusted Mueller-Hinton Broth (CAMHB), or M9 media. […] Tests were performed in triplicate. MIC of iron chelators were determined for noscomial ESKAPE pathogens.
# [2] = system: clinical isolates of A. baumannii; experiment: MIC for clinical isolates in RPMI (low iron) media (Table 4); type: cell-based; design: key to MIC of Iron Chelators: NG = no growth in table 4; conditions: for MIC: Acinetobacter baumannii
# Procedure: […] […] Tests were performed in triplicate. MIC of iron chelators were determined for noscomial ESKAPE pathogens.
# For a number of strains, the iron chelators produced no growth of bacteria (NG).
# [3] = system: A. baumannii strain AB19606; experiment: Growth (OD600) with chelator, Rifampin or both; type: cell-based; conditions: CAMHB
# Procedure: A. baumannii strain AB19606 was grown in CAMHB and challenged with 1.5×MIC compound 4 (Var) or 1.5×MIC Triapine (Tri) with or without 0.75×MIC Rifampin (Rif). Growth was estimated by absorbance at 600 nm (y-axis) at 0 or 24 hours.
# E. coli strain EC35218 = experiment: Growth (OD600) with chelator, Rifampin or both; type: cell-based; conditions: CAMHB
# Procedure: E. coli strain EC35218 was grown in CAMHB and challenged with 1.5×MIC compound 4 (Var) or 1.5×MIC Triapine (Tri) with or without 0.75×MIC Rifampin (Rif). Growth was estimated by absorbance at 600 nm (y-axis) at 0 or 24 hours.
# [4] = system: A. baumannii, strain AB5711; experiment: Growth curves (OD600) in CAMHB with compound 4; type: cell-based
# From the text: It should be noted that the inhibition occurred in a dose-responsive manner.
# [5] = Stability in aqueous solution; type: physicochemical
# [6] = AB3638, read-out: MIC of Iron Chelators
# [7] = AB3785, read-out: MIC of Iron Chelators
# [8] = AB3806, read-out: MIC of Iron Chelators
# [9] = AB3917, read-out: MIC of Iron Chelators
# [10] = AB4025, read-out: MIC of Iron Chelators
# [11] = AB4026, read-out: MIC of Iron Chelators
# [12] = AB4027, read-out: MIC of Iron Chelators
# [13] = AB4052, read-out: MIC of Iron Chelators
# [14] = AB4269, read-out: MIC of Iron Chelators
# [15] = AB4448, read-out: MIC of Iron Chelators
# [16] = AB4456, read-out: MIC of Iron Chelators
# [17] = AB4490, read-out: MIC of Iron Chelators
# [18] = AB4498, read-out: MIC of Iron Chelators
# [19] = AB4795, read-out: MIC of Iron Chelators
# [20] = AB4857, read-out: MIC of Iron Chelators
# [21] = AB4878, read-out: MIC of Iron Chelators
# [22] = AB4932, read-out: MIC of Iron Chelators
# [23] = AB4957, read-out: MIC of Iron Chelators
# [24] = AB4991, read-out: MIC of Iron Chelators
# [25] = AB5001, read-out: MIC of Iron Chelators
# [26] = AB5075, read-out: MIC of Iron Chelators
# [27] = AB5197, read-out: MIC of Iron Chelators
# [28] = AB5256, read-out: MIC of Iron Chelators
# [29] = AB5674, read-out: MIC of Iron Chelators
# [30] = AB5711, read-out: MIC of Iron Chelators
# [31] = 1.5×MIC chelator in combination with 0.75×MIC Rifampin
# [32] = alone: 1.5×MIC chelator or 0.75×MIC Rifampin
smiles,measurement,setting,value
"OCCN1CCN(CCc2ccc(O)c3ncccc23)CC1 [Compound 4, 5-(2-(4-(2-hydroxyethyl)piperazin-1-yl)ethyl)-8-quinolinol]",MIC,"[1]; AB967, read-out: MIC of Iron Chelators",500 µg/mL
same,MIC,"[1]; AB2828, read-out: MIC of Iron Chelators",500 µg/mL
same,MIC,"[1]; AB3340, read-out: MIC of Iron Chelators",500 µg/mL
same,MIC,"[1]; AB3560, read-out: MIC of Iron Chelators",500 µg/mL
same,MIC,[1]; [6],500 µg/mL
same,MIC,[1]; [7],500 µg/mL
same,MIC,[1]; [8],1000 µg/mL
same,MIC,[1]; [9],500 µg/mL
same,MIC,"[1]; AB3927, read-out: MIC of Iron Chelators",500 µg/mL
same,MIC,[1]; [10],500 µg/mL
same,MIC,[1]; [11],500 µg/mL
same,MIC,[1]; [12],500 µg/mL
same,MIC,[1]; [13],1000 µg/mL
same,MIC,[1]; [14],500 µg/mL
same,MIC,[1]; [15],500 µg/mL
same,MIC,[1]; [16],500 µg/mL
same,MIC,[1]; [17],500 µg/mL
same,MIC,[1]; [18],500 µg/mL
same,MIC,[1]; [19],500 µg/mL
same,MIC,[1]; [20],500 µg/mL
same,MIC,[1]; [21],500 µg/mL
same,MIC,[1]; [22],500 µg/mL
same,MIC,[1]; [23],500 µg/mL
same,MIC,[1]; [24],500 µg/mL
same,MIC,[1]; [25],500 µg/mL
same,MIC,[1]; [26],500 µg/mL
same,MIC,[1]; [27],500 µg/mL
same,MIC,[1]; [28],500 µg/mL
same,MIC,[1]; [29],500 µg/mL
same,MIC,[1]; [30],500 µg/mL
same,MIC of Iron Chelators,[2]; AB967,NG
same,MIC of Iron Chelators,[2]; AB2828,NG
same,MIC of Iron Chelators,[2]; AB3340,NG
same,MIC of Iron Chelators,[2]; AB3560,NG
same,MIC of Iron Chelators,[2]; AB3927,NG
same,MIC,[2]; [6],64 µg/mL
same,MIC,[2]; [7],32 µg/mL
same,MIC,[2]; [8],32 µg/mL
same,MIC,[2]; [9],32 µg/mL
same,MIC,[2]; [10],32 µg/mL
same,MIC,[2]; [11],32 µg/mL
same,MIC,[2]; [12],32 µg/mL
same,MIC,[2]; [13],64 µg/mL
same,MIC,[2]; [14],32 µg/mL
same,MIC,[2]; [15],64 µg/mL
same,MIC,[2]; [16],32 µg/mL
same,MIC,[2]; [17],32 µg/mL
same,MIC,[2]; [18],64 µg/mL
same,MIC,[2]; [19],32 µg/mL
same,MIC,[2]; [20],64 µg/mL
same,MIC,[2]; [21],64 µg/mL
same,MIC,[2]; [22],125 µg/mL
same,MIC,[2]; [23],125 µg/mL
same,MIC,[2]; [24],8 µg/mL
same,MIC,[2]; [25],32 µg/mL
same,MIC,[2]; [26],64 µg/mL
same,MIC,[2]; [27],32 µg/mL
same,MIC,[2]; [28],125 µg/mL
same,MIC,[2]; [29],32 µg/mL
same,MIC,[2]; [30],64 µg/mL
same,"reduction of bacteria (absorbance at 600 nm, 24 hours)",[3]; [31],significant reduction in bacteria
same,"reduction of bacteria (absorbance at 600 nm, 24 hours)",[3]; [32],no reduction of bacteria
same,"reduction of bacteria (absorbance at 600 nm, 24 hours)",E. coli strain EC35218; [31],significant reduction in bacteria
same,"reduction of bacteria (absorbance at 600 nm, 24 hours)",E. coli strain EC35218; [32],did not result in a reduction of bacteria
same,OD600 (growth curves),[4],dramatically reduced
same,stability in aqueous solution,[5],highly stable
